In brackets after ≈: the same amount, converted by molar mass.
Experiments:
[1] = Glibenclamide solubility at various pH in PEG 300/ethanol/meglumine buffer (Table 2, FIG. 1); assay type: physicochemical; settings: for solubility: aqueous with cosolvent or surfactant or cyclodextrin
Protocol: The solubility of glibenclamide was measured at various pH levels in the presence of different amounts of the buffer meglumine in solutions containing 40% PEG 300, 10% ethanol, and 50% water. […] The pH of the meglumine buffer was adjusted down from pH 11 to the target pH range of between about pH 8 to about pH 10.

[2] = Precipitation on dilution of concentrated glibenclamide solutions; assay type: physicochemical
Protocol: This formulation may also include a buffer, such as meglumine or diethanolamine. This formulation may also include a surfactant; for example, this solution may include Tween 80 (e.g., less than about 1 ug/ml or less than about 1 ug/mg of glibenclamide). This formulation can be stored in a refrigerator (e.g., at about 2-8° C.) or can be stored at room temperature. This formulation is suitable for dilution; for example, it may be diluted 1:1, or 1:2 for use in bolus injections. This formulation may also be diluted by larger amounts of diluent, to 1:50 for example, for administration of glibenclamide as an infusion over an extended period of time. Dilution with a buffered solution allows the reduction of the solution pH to physiological levels without causing precipitation of glibenclamide. […] Experiments investigating the effect of dilution of relatively high concentrations of SUR-active compounds were performed. […] These solutions were diluted as follows with each of these diluents (0.9% NaCl and 5% glucose solutions): 1 in 2; 1 in 4; 1 in 5; 1 in 10; 1 in 20; and 1 in 50.

physchem = assay: physchem
Protocol: The solubility of glibenclamide was tested in various solutions and at various pH.

[3] = Stability of glibenclamide injection formulations on storage; assay type: physicochemical; settings: formulation with 5 mM meglumine at pH 9
Protocol: Glibenclamide stability was investigated by storing several formulations under different conditions for long periods of time. In particular, glibenclamide formulations suitable for injection were stored for up to six months and stability data for these formulations was obtained over that period of time.
This study assessed the relative stability of 4 batches of glibenclamide formulations suitable for injection. The following studies were conducted.
All storage cabinets were continually monitored for temperature and humidity using calibrated probes. After removal from long-term storage, all samples were stored at 2-8° C. protected from light while awaiting analysis.
At each time point, 2 vials of glibenclamide injections will be removed from the storage cabinet from the appropriate conditions and allowed to equilibrate to ambient temperature. This will be used to perform the analyses described above and will be stored under normal laboratory conditions throughout the duration of the analyses.
The formulations were inspected visually for appearance and for the presence of particulates. The pH of duplicate samples from separate vials was measured to determine formulation pH and to track changes, if any, over the course of time during the stability experiments.

[4] = Glibenclamide solubility in infusion fluids by HPLC, excess drug shaken 24 hours (Table 4); assay type: physicochemical; settings: thermodynamic from solid, 24 hours ambient
Protocol: The solubility of glibenclamide was determined by high pressure liquid chromatography (HPLC) in a variety of infusion fluids. Excess glibenclamide was shaken with the vehicle for 24 hours at ambient temperature and the glibenclamide content of the supernatant determined by HPLC.
The following infusion vehicles were assessed in these experiments:
1.) 0.9% NaCl at the lowest end of the pH specification (pH 4.5) containing a 50-fold dilution of the PEG/ethanol/meglumine 10 mM pH 9.0 formulation.
2.) 0.9% NaCl at the lowest end of the pH specification (pH 4.5) containing a 50-fold dilution of the PEG/ethanol/diethanolamine 10 mM pH 9.0 formulation.
3.) 0.9% NaCl at the lowest end of the pH specification (pH 4.5) containing a 50-fold dilution of the PEG/ethanol/TRIS 10 mM pH 9.0 formulation.
4.) 0.9% NaCl at the lowest end of the pH specification (pH 4.5).
5.) 0.9% NaCl at the highest end of the pH specification (pH 7.0).
6.) 0.9% NaCl ‘as is’ (pH 5.8).
7.) 0.9% NaCl at the lowest end of the pH specification (pH 4.5) containing a 50-fold dilution of the PEG/ethanol formulation (without buffer or pH adjustment).
8.) 0.9% NaCl at the highest end of the pH specification (pH 7.0) containing a 50-fold dilution of the PEG/ethanol formulation (without buffer or pH adjustment).

SMILES: COc1ccc(Cl)cc1C(=O)NCCc1ccc(S(=O)(=O)NC(=O)NC2CCCCC2)cc1 [Glibenclamide, N-p-(2-[5-Chloro-2-methoxybenzamido]ethyl) benzenesulfonyl-N′-cyclohexylurea]
- solubility change with pH (FIG. 1) ([1]; 40% PEG 300, 10% ethanol, 50% water, meglumine buffer, basic pH values greater than about pH 8): greatly increased
- solubility ([1]; PEG 300/ethanol/meglumine buffer solution, PEG 300/Ethanol/20 mM Meglumine 40%/10%/50% (final 10 mM), nominal pH 8.5, actual pH 5.4): 100 µg/mL (≈ 202 µM)
- solubility ([1]; PEG 300/ethanol/meglumine buffer solution, PEG 300/Ethanol/20 mM Meglumine 40%/10%/50% (final 10 mM), nominal pH 9.0, actual pH 5.6): 130 µg/mL (≈ 263 µM)
- solubility ([1]; PEG 300/ethanol/meglumine buffer solution, PEG 300/Ethanol/20 mM Meglumine 40%/10%/50% (final 10 mM), nominal pH 9.5, actual pH 6.4): 120 µg/mL (≈ 243 µM)
- solubility ([1]; PEG 300/ethanol/meglumine buffer solution, PEG 300/Ethanol/100 mM Meglumine 40%/10%/50% (final 50 mM), nominal pH 9.5, actual pH 7.7): 410 µg/mL (≈ 830 µM)
- solubility ([1]; PEG 300/ethanol/meglumine buffer solution, PEG 300/Ethanol/100 mM Meglumine 40%/10%/50% (final 50 mM), nominal pH 10.0, actual pH 8.8): 2740 µg/mL (≈ 5550 µM)
- solubility ([1]; 40% PEG 300, 10% ethanol, 50% water with meglumine buffer, nominal pH 9 (pH 8.8)): 2700 µg/mL (≈ 5470 µM)
- solubility ([1]; PEG 300/Ethanol/20 mM Meglumine 40%/10%/50% (final 10 mM), nominal pH 10.0, actual pH 6.9): 980 µg/mL (≈ 1980 µM)
- solubility ([1]; PEG 300/Ethanol/50 mM Meglumine 40%/10%/50% (final 25 mM), nominal pH 8.0, actual pH 5.2): 160 µg/mL (≈ 324 µM)
- solubility ([1]; PEG 300/Ethanol/50 mM Meglumine 40%/10%/50% (final 25 mM), nominal pH 9.5, actual pH 6.6): 90 µg/mL (≈ 182 µM)
- solubility ([1]; PEG 300/Ethanol/50 mM Meglumine 40%/10%/50% (final 25 mM), nominal pH 10.0, actual pH 7.8): 360 µg/mL (≈ 729 µM)
- solubility ([1]; PEG 300/Ethanol/100 mM Meglumine 40%/10%/50% (final 50 mM), nominal pH 8.0, actual pH 5.3): 90 µg/mL (≈ 182 µM)
- solubility ([1]; PEG 300/Ethanol/100 mM Meglumine 40%/10%/50% (final 50 mM), nominal pH 8.5, actual pH 5.5): 100 µg/mL (≈ 202 µM)
- solubility ([1]; PEG 300/Ethanol/100 mM Meglumine 40%/10%/50% (final 50 mM), nominal pH 9.0, actual pH 6.2): 100 µg/mL (≈ 202 µM)
- precipitation on dilution ([2]; 2 mg/ml in 100 mM meglumine buffer with 0.9% NaCl or 5% glucose, diluted 1 in 2, 4, 5, 10, 20 and 50 with these diluents): no precipitation
- behaviour of drug during and following dilution ([2]; Example 1 formulation (40% PEG 300, 10% Ethanol, 50% water, about pH 9, 1 mg/ml) diluted 1:50 with Hartman's solution): remained in solution
- solubility (physchem; pH 5.3, aqueous buffer, Solubility): 10 µg/mL (≈ 20.2 µM)
- solubility (physchem; pH 6.2, aqueous buffer, Solubility): 10 µg/mL (≈ 20.2 µM)
- solubility (physchem; pH 6.6, water, Solubility): 70 µg/mL (≈ 142 µM)
- solubility (physchem; pH 6.9): 60 µg/mL (≈ 121 µM)
- solubility (physchem; pH 6.9, aqueous with cosolvent or surfactant or cyclodextrin, Solubility): 90 µg/mL (≈ 182 µM)
- solubility (physchem; pH 7.1, aqueous buffer, Solubility): 10 µg/mL (≈ 20.2 µM)
- solubility (physchem; pH 7.2, aqueous with cosolvent or surfactant or cyclodextrin, Solubility): 80 µg/mL (≈ 162 µM)
- solubility (physchem; pH 7.6, aqueous with cosolvent or surfactant or cyclodextrin, Solubility): 600 µg/mL (≈ 1210 µM)
- solubility (physchem; pH 7.7, aqueous with cosolvent or surfactant or cyclodextrin, Solubility): 10 µg/mL (≈ 20.2 µM)
- solubility (physchem; pH 9.7): 860 µg/mL (≈ 1740 µM)
- solubility (physchem; pH 9.7, aqueous buffer, Solubility): 860 µg/mL (≈ 1740 µM)
- solubility (physchem; pH 9.7, aqueous with cosolvent or surfactant or cyclodextrin, Solubility): 18300 µg/mL (≈ 37000 µM)
- solubility (physchem; pH 9.8): 11200 µg/mL (≈ 22700 µM)
- solubility (physchem; pH 9.8, aqueous with cosolvent or surfactant or cyclodextrin, Solubility): 14600 µg/mL (≈ 29700 µM)
- solubility (physchem; pH 10.1): 2350 µg/mL (≈ 4760 µM)
- solubility (physchem; pH 10.1, aqueous buffer, Solubility): 2350 µg/mL (≈ 4760 µM)
- solubility (physchem; pH 10.5): 15650 µg/mL (≈ 31700 µM)
- solubility (physchem; pH 10.5, aqueous with cosolvent or surfactant or cyclodextrin, Solubility): 13400 µg/mL (≈ 27200 µM)
- solubility (physchem; pH 10.7, aqueous buffer, Solubility): 8120 µg/mL (≈ 16400 µM)
- solubility (physchem; pH 10.7, aqueous with cosolvent or surfactant or cyclodextrin, Solubility): 13900 µg/mL (≈ 28200 µM)
- hydrolysis on storage ([3]; refrigerated samples stored at 2-8° C., FIG. 3A): hydrolysis was not seen
- physical stability (drug in solution) on storage ([3]; stored at 2-8° C.): remained in solution
- hydrolysis on storage ([3]; stored at elevated temperatures (25° C./60% RH, 40° C./75% RH), FIGS. 3B, 3C): some hydrolysis
- solubility at 24 h ([4]; 0.9% NaCl infusion fluid, pH 7.8, saline or isotonic, 0.9% NaCl 'as is' (pH 5.8), actual pH 7.80): 150 µg/mL (≈ 304 µM)
- solubility at 24 h ([4]; 0.9% NaCl infusion fluid, saline or isotonic, 0.9% NaCl at pH 4.5, actual pH 7.72): 80 µg/mL (≈ 162 µM)
- solubility at 24 h ([4]; 0.9% NaCl infusion fluid, saline or isotonic, 0.9% NaCl at pH 7.0, actual pH 7.75): 120 µg/mL (≈ 243 µM)
- solubility at 24 h ([4]; pH 7.9, saline or isotonic, NaCl at pH 7.0 + PEG/EtOH, no buffer (50-fold dilution), actual pH 7.90): 140 µg/mL
- solubility at 24 h ([4]; saline or isotonic, NaCl at pH 4.5 + PEG/EtOH, no buffer (50-fold dilution), actual pH 7.64): 100 µg/mL
- solubility at 24 h ([4]; saline or isotonic, NaCl at pH 4.5 + PEG/EtOH/Diethanolamine 10 mM, pH 9.0 (50-fold dilution), actual pH 8.19): 130 µg/mL
- solubility at 24 h ([4]; saline or isotonic, NaCl at pH 4.5 + PEG/EtOH/Meglumine 10 mM, pH 9.0 (50-fold dilution), actual pH 7.92): 150 µg/mL
- solubility at 24 h ([4]; saline or isotonic, NaCl at pH 4.5 + PEG/EtOH/TRIS 10 mM, pH 9.0 (50-fold dilution), actual pH 7.89): 150 µg/mL

Source: patent publication US10688111B2, “Liquid formulations of compounds active at sulfonylurea receptors” (Biogen Chesapeake LLC, priority 2008, dated 2020)
